Paper PMC5249140, “Delineating Substrate Diversity of Disparate Short-Chain Dehydrogenase Reductase from Debaryomyces hansenii” (PLoS ONE, 2017)

B1: DHK (SDR from Debaryomyces hansenii) (Debaryomyces hansenii CBS767) (protein)
chain: MTRTVFVSGASGFIAQNIVKLLIEKGYNVIGTVRTAEKGENLKKCLASEKFTYEIVPDISVEGAFDKVLEKHSEINVLLHTASPFFYDTTDPENDLVLPAINGTKNILKAVKQYGAQIERVVITSSDAAIYSADDEQNSDLSFNESNWNSISYEDAIKDPIAAYYGAKTFAEKAAWDFVKENNSNFKLTAVNPVYVFGPQAFASEVKGKLNTSNELINTLIKLGPSDLFDNDKGGFIDVRDVAKAHVMAFESEDTINKRLYLTNGHFSTQMMLDIVNKNFPELKGKIPIGNPGTGSQDISTLAKMSNDATRQILNFDFNSLEKVVADTVAQILDARKRTL
notes: full-length codon-optimised synthetic gene in pET28a, N-terminal His6 tag kept, E. coli BL21(DE3), ~39 kDa, monomer

Experiments:
[1] = biological target: T1, DHK (SDR from Debaryomyces hansenii) (Debaryomyces hansenii, UniProt Q6BTD7); assay: differential scanning fluorimetry, SYPRO orange; format: binding; conditions: 50 μM ligand, 2.5 μM enzyme; apo Tm 28.04°C
T1 construct: gene DEHA2D01496g; full-length codon-optimised synthetic gene in pET28a, N-terminal His6 tag kept, E. coli BL21(DE3), ~39 kDa, monomer

[2] = biological target: T2, FabG (β-keto ACP reductase) (Synechococcus elongatus, UniProt Q31QF3); assay: differential scanning fluorimetry, SYPRO orange; format: binding; conditions: 2.5 μM enzyme; apo Tm 58°C, with NADPH 65°C
T2 construct: gene Synpcc7942_0684; codon-optimised synthetic gene in pET28a, N-terminal His6 tag, E. coli BL21(DE3), ~29 kDa
T2 sequence (Q31QF3 entry or part of it): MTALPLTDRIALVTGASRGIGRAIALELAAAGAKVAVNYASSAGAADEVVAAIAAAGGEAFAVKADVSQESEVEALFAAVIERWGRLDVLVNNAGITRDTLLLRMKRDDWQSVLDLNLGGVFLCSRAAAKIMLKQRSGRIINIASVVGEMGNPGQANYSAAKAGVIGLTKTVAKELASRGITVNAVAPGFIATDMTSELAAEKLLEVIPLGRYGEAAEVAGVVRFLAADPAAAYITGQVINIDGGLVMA

purified protein [3] = substrate: CCOC(=O)CC(=O)CCl; assay: purified protein; format: biochemical, Debaryomyces hansenii; conditions: 300 μM NADPH, 100 mM sodium phosphate, 100 mM NaCl, pH 7.4, 25°C
purified protein [4] = substrate: NC(=O)C1=CN([C@@H]2O[C@H](COP(=O)(O)OP(=O)(O)OC[C@H]3O[C@@H](n4cnc5c(N)ncnc54)[C@H](OP(=O)(O)O)[C@@H]3O)[C@@H](O)[C@H]2O)C=CC1; assay: purified protein; format: biochemical, Debaryomyces hansenii; conditions: 2 mM ethyl 4-chloro acetoacetate, 100 mM sodium phosphate, 100 mM NaCl, pH 7.4, 25°C, varied: cofactor

Molecule	ΔTm [1]	Tm shift [2]	Km (purified protein [3])	Km (purified protein [4])
NC(=O)C1=CN([C@@H]2O[C@H](COP(=O)(O)OP(=O)(O)OC[C@H]3O[C@@H](n4cnc5c(N)ncnc54)[C@H](O)[C@@H]3O)[C@@H](O)[C@H]2O)C=CC1 [NADH]	1.82 °C			
NC(=O)C1=CN([C@@H]2O[C@H](COP(=O)(O)OP(=O)(O)OC[C@H]3O[C@@H](n4cnc5c(N)ncnc54)[C@H](OP(=O)(O)O)[C@@H]3O)[C@@H](O)[C@H]2O)C=CC1 [NADPH]	6.05 °C	7 °C		
B1			616.1 µM	51.09 µM
